Results published in ChEMBL document CHEMBL1146371, “HSP90-like artificial chaperone activity based on indole beta-cyclodextrin” (Bioorg Med Chem, 2007).
Activity calls are given as the source filed them. No cut-off for these calls is given here.

Test: Artificial […]-like chaperone activity assessed as prevention of citrate synthase thermal aggregation
Assay type: functional

With `OC[C@H]1O[C@@H]2O[C@H]3[C@H](O)[C@@H](O)[C@@H](O[C@H]4[C@H](O)[C@@H](O)[C@@H](O[C@H]5[C@H](O)[C@@H](O)[C@@H](O[C@H]6[C@H](O)[C@@H](O)[C@@H](O[C@H]7[C@H](O)[C@@H](O)[C@@H](O[C@H]8[C@H](O)[C@@H](O)[C@@H](O[C@H]1[C@H](O)[C@H]2O)O[C@@H]8CO)O[C@@H]7CO)O[C@@H]6CO)O[C@@H]5CO)O[C@@H]4CO)O[C@@H]3CO` the Activity was “Active”.
For `OC[C@H]1O[C@@H]2O[C@H]3[C@H](O)[C@@H](O)[C@@H](O[C@H]4[C@H](O)[C@@H](O)[C@@H](O[C@H]5[C@H](O)[C@@H](O)[C@@H](O[C@H]6[C@H](O)[C@@H](O)[C@@H](O[C@H]7[C@H](O)[C@@H](O)[C@@H](O[C@H]1[C@H](O)[C@H]2O)O[C@@H]7CO)O[C@@H]6CO)O[C@@H]5CO)O[C@@H]4CO)O[C@@H]3CO`, the Activity was “inactive”.
